Assay results from publication PMC11045757, “Group 3 medulloblastoma transcriptional networks collapse under domain specific EP300/CBP inhibition” (Nature Communications, 2024).
Where “and” joins values, the source holds several entries; their conditions need not be identical. Equal entries are not always repeated. Where two headings read alike, the source gives them in different places.

Experiments:
[1] = molecular target: GFP-tagged CBP bromodomain (Homo sapiens, UniProt Q92793); test: Microscale thermophoresis (MST); format: binding; details: for Response (Dose Response Curve): MST raw response
GFP-tagged CBP bromodomain, sequence (Q92793 1085-1192 limits assumed): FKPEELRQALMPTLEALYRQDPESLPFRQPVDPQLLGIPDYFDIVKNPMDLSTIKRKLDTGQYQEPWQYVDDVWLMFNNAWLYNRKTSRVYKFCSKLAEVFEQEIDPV
Description: MST experiments were performed in a Monolith NT.115 Pico instrument (NanoTemper Technologies) following published procedures. […] MST traces were recorded using standard parameters: 5 s MST power off, 30 s MST power on and 5 s MST power off. Measurements were taken at -1-0 s (cold region) and 10 s (hot region) and data were analyzed using the NTAnalysis software.

CBP bromodomain [2] = test: Differential scanning fluorimetry (DSF) thermal shift; format: binding; details: ΔTm (CBP)/ΔTm(BRD4)
Description: (§1) After 18 h growth, the culture was harvested by centrifugation at 6000 × g for 25 min and stored at -80 °C. Harvested cell pellets were re-suspended in 50 mM Na/K phosphate buffer (pH 7.4) containing 100 mM NaCl, 40 mM imidazole, 0.01% w/v lysozyme and 0.01% v/v Triton X-100 at 4 °C for 1 h, subjected to sonication and the lysate was clarified by centrifugation (30,000 × g for 45 min at 4 °C). Proteins were purified by FPLC at 4 °C using columns and chromatography materials from GE Healthcare. […] Proteins were purified to homogeneity by size exclusion chromatography using Superdex 75 equilibrated with elution buffer (50 mM HEPES pH 7.5, 100 mM NaCl, 2 mM DTT). […] Pool fractions were combined, concentrated to 10–12 mg/ml, and aliquots were flash-frozen in liquid N2 and stored at −80 °C.
(§2) DSF experiments were performed with an Applied Biosystem StepOnePlus real-time PCR system (Thermo Fisher Scientific) using 96-well format plates, assayed in quadruplicate. For thermal shift determination, 5 μM protein was mixed with 100 μM compound in 50 mM HEPES, pH 7.5, 150 mM NaCl, 2 mM DTT, 2% DMSO, 5X SYPRO Orange (Thermo Fisher Scientific) in 20 μL reaction volumes.

CBP bromodomain [3] = molecular target: T1, CBP bromodomain (Homo sapiens, UniProt Q92793); test: as above; format: binding; details: for ∆Tm (°C) CBP / ΔTm (°C) CBP: DSF; for ∆Tm (°C) CBP: 5 μM protein, 100 μM compound, three independent experiments, average ± SD; for DSF ΔTm (°C): Figure 3C, DSF (values equal CBP column)
T1 construct: CBP (residues 1081-1197); 6xHis (cleaved yes); host or cells: E. coli BL21 (DE3) RIL
T1 sequence (Q92793 1081-1197): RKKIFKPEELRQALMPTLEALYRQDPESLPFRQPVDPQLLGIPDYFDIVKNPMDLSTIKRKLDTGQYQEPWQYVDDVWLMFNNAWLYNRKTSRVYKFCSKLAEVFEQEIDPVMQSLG
Description: as §1, §2

[4] = tested on: HDMB03 (HDMBO3) group 3 medulloblastoma cells; test: CellTiter-Glo dose-response growth assay; format: cell-based; details: HDMBO3 G3MB cell growth, read-out: IC50 (nM) HDMBO3
Description: CellTiter-Glo assay was performed as per the manufacturer’s instructions, at the noted timepoint after compound treatment or plating. For Kelly, TE617T, RhJT, NCIH2122, NCIH650 and 143B, 500 cells were plated in normal growth media per well in a 384-well plate (Corning). HDMB03 and MB002 cells were plated in growth media at 500 cells/well in a 384-well plate. […] Cells were incubated for the noted timepoints prior to performing CellTiter-Glo assay as per the manufacturer’s instructions, and reading plates on an Envision 2104 microplate reader.

BRD4-BD1 (BRD4-1) [5] = molecular target: T2, BRD4-BD1 (BRD4-1) (Homo sapiens, UniProt O60885); test: Isothermal titration calorimetry (ITC); format: binding; details: relative to CCS1477
T2 construct: BRD4-BD1 (residues 44-168); 6xHis (cleaved yes); host or cells: E. coli BL21 (DE3) RIL
Description: (§3) At OD600 of 0.6, the culture was cooled down to 18 °C and induced with 0.1 mM IPTG. After 18 h growth, the culture was harvested by centrifugation at 6000 × g for 25 min and stored at -80 °C. Harvested cell pellets were re-suspended in 50 mM Na/K phosphate buffer (pH 7.4) containing 100 mM NaCl, 40 mM imidazole, 0.01% w/v lysozyme and 0.01% v/v Triton X-100 at 4 °C for 1 h, subjected to sonication and the lysate was clarified by centrifugation (30,000 × g for 45 min at 4 °C). Proteins were purified by FPLC at 4 °C using columns and chromatography materials from GE Healthcare. […] Proteins were purified to homogeneity by size exclusion chromatography using Superdex 75 equilibrated with elution buffer (50 mM HEPES pH 7.5, 100 mM NaCl, 2 mM DTT). All BRDs eluted as monomeric protein and were of crystallization grade quality (>95% purity as judged by SDS-PAGE). Pool fractions were combined, concentrated to 10–12 mg/ml, and aliquots were flash-frozen in liquid N2 and stored at −80 °C.
All experiments were conducted using an PEAQ-ITC calorimeter (Malvern Scientific). BRDs were buffer exchanged using PD10 columns (GE life sciences) into 50 mM HEPES pH7.5 and 100 mM NaCl (ITC buffer) before the experiment and concentrated to ∼10 mg/mL. Experiments were carried out in ITC buffer while stirring at 750 rpm through reverse titration. The microsyringe (40 μL load volume) was loaded with the protein sample (250–600 μM protein in ITC buffer) and inserted into the calorimetric cell (0.2 mL cell volume) consisting of compound (20–60 μM in ITC buffer). All titrations were conducted using an initial control injection of 0.2 μL followed by 13 identical injections (~3 μL per injection) with a duration of 2 s (per injection) and a spacing of 150 s between injections. The ratio of protein/compound was optimized to ensure complete saturation of the titrant before the final injection to ensure proper baseline determination. Data were corrected for dilution and analyzed using the MicroCal Origin software to determine the enthalpies of binding (ΔH) and binding constants as described. Thermodynamic parameters were calculated using the basic equation of thermodynamics (ΔG = ΔH − TΔS = −RTlnKB) where ΔG, ΔH and ΔS are the changes in free energy, enthalpy and entropy of binding, respectively. A single binding site model was used for all ligand-protein interactions.

BRD4-BD1 (BRD4-1) [6] = molecular target: T2, BRD4-BD1 (BRD4-1); test: Differential scanning fluorimetry (DSF) thermal shift; format: binding; details: DSF; for ∆Tm (°C) BRD4-1: 5 μM protein, 100 μM compound, three independent experiments, average ± SD; for ΔTm (°C) BRD4-BD1: Figure 3A
Description: as §3
as §2, with “volumes. Reaction mixtures were heated from 25 to 95 °C at 1 °C/min with fluorescence readings every 0.5 °C at 610 nm. The observed thermal shift (ΔTm) was recorded as the difference between the Tm of sample and DMSO reference wells.” for “volumes.”

EP300 bromodomain = molecular target: T3, EP300 bromodomain (Homo sapiens, UniProt Q09472); test: as above; format: binding; details: DSF; for ∆Tm (°C) EP300: 5 μM protein, 100 μM compound, three independent experiments, average ± SD; for ΔTm (°C) EP300: Figure 3B
T3 construct: 6xHis (cleaved yes); host or cells: E. coli BL21 (DE3) RIL
T3 sequence (Q09472 1048-1161): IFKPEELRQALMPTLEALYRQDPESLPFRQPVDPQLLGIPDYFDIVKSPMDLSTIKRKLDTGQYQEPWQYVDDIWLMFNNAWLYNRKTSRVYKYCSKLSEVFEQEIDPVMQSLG
Description: as §3
as §2, with “volumes. Reaction mixtures were heated from 25 to 95 °C at 1 °C/min with fluorescence readings every 0.5 °C at 610 nm. The observed thermal shift (ΔTm) was recorded as the difference between the Tm of sample and DMSO reference wells.” for “volumes.”

[7] = three independent MST experiments, average ± SD, read-out: Kd (nM) CBP

## COC1CCC(n2c(C3CCCC(=O)N3)nc3cc(-c4c(C)noc4C)ccc32)CC1 (stereo not shown) [Compound 2]
[1]; MO.Affinity Analysis export, single runs, target clGFP-CBPBRD 5e-8, unit inferred, listed as CCS1477int2, read-out: Kd (fit result of individual MST run)
  Kd: 1770 nM and 1540 nM and 2010 nM
[1]; [7]
  Kd: 1770 ± 234 nM
CBP bromodomain [2]
  Ratio CBP/BRD4 of ∆Tm: 1.9
CBP bromodomain [3]
  ∆Tm (°C) CBP: 5.6 ± 0.05 °C
  DSF ΔTm (°C): 5.6 °C
CBP bromodomain [3]; listed as CCS1447int2
  ∆Tm (°C) CBP: 5.6 °C
CBP bromodomain [3]; Figure 3A, CBP bromodomain
  ΔTm (°C) CBP: 5.6 °C
CBP bromodomain [3]; Figure 3B, CBP
  ΔTm (°C) CBP: 5.6 °C
[4]
  IC50: > 100000 nM
BRD4-BD1 (BRD4-1) [5]
  reduction of activity against BRD4: ~ 10 fold
BRD4-BD1 (BRD4-1) [6]
  ∆Tm (°C) BRD4-1: 2.9 ± 0.11 °C
  ΔTm (°C) BRD4-BD1: 2.9 °C
BRD4-BD1 (BRD4-1) [6]; listed as CCS1447int2
  ∆Tm (°C) BRD4-1: 2.9 °C
EP300 bromodomain
  ∆Tm (°C) EP300: 5.6 ± 0.12 °C
  ΔTm (°C) EP300: 5.6 °C

## COC1CCC(n2c(C3CCCC(=O)N3c3ccccc3)nc3cc(-c4c(C)noc4C)ccc32)CC1 (stereo not shown) [Compound 5]
[1]; Dose 1.52588e-10, single replicate run, listed as iCBP-5
  Response (Dose Response Curve): 914.717 and 915.838
[1]; Dose 3.05176e-10, single replicate run, listed as iCBP-5
  Response (Dose Response Curve): 915.243 and 914.96
[1]; Dose 6.10352e-10, single replicate run, listed as iCBP-5
  Response (Dose Response Curve): 914.396 and 915.476
[1]; Dose 1.2207e-9, single replicate run, listed as iCBP-5
  Response (Dose Response Curve): 915.983 and 915.524
[1]; Dose 2.44141e-9, single replicate run, listed as iCBP-5
  Response (Dose Response Curve): 915.86 and 916.029
[1]; Dose 4.88281e-9, single replicate run, listed as iCBP-5
  Response (Dose Response Curve): 914.611 and 915.107
[1]; Dose 9.76563e-9, single replicate run, listed as iCBP-5
  Response (Dose Response Curve): 914.911 and 914.67
[1]; Dose 1.95313e-8, single replicate run, listed as iCBP-5
  Response (Dose Response Curve): 915.602 and 914.588
[1]; Dose 3.90625e-8, single replicate run, listed as iCBP-5
  Response (Dose Response Curve): 913.799 and 914.854
[1]; Dose 7.8125e-8, single replicate run, listed as iCBP-5
  Response (Dose Response Curve): 913.08 and 913.563
[1]; Dose 1.5625e-7, single replicate run, listed as iCBP-5
  Response (Dose Response Curve): 911.965 and 911.667
[1]; Dose 3.125e-7, single replicate run, listed as iCBP-5
  Response (Dose Response Curve): 909.591 and 910.599
[1]; Dose 6.25e-7, single replicate run, listed as iCBP-5
  Response (Dose Response Curve): 911.215 and 910.906
[1]; Dose 1.25e-6, single replicate run, listed as iCBP-5
  Response (Dose Response Curve): 911.169 and 911.287
[1]; Dose 2.5e-6, single replicate run, listed as iCBP-5
  Response (Dose Response Curve): 914.21 and 911.877
[1]; Dose 5e-6, single replicate run, listed as iCBP-5
  Response (Dose Response Curve): 912.484 and 912.12
[1]; MST, single replicate run, target clGFP-CBPBRD, TargetConcentration 5e-8, MST-Power Medium, unit inferred, read-out: Kd (Fit Results, Fit Model: Kd)
  Kd: 16.1 nM and 33.7 nM
[1]; fitted MST response of bound state, single replicate run, target clGFP-CBPBRD 5e-8, listed as iCBP-5
  Bound (Fit Results): 911.766 and 911.236
[1]; fitted MST response of unbound state, single replicate run, target clGFP-CBPBRD 5e-8, listed as iCBP-5
  Unbound (Fit Results): 915.376 and 915.584
[1]; relative to CCS1477
  loss of binding affinity (CBP): ~ 10 fold
[1]; [7]
  Kd: 31.4 ± 14.2 nM
CBP bromodomain [2]
  Ratio CBP/BRD4 of ∆Tm: 2.7
CBP bromodomain [3]
  ∆Tm (°C) CBP: 14.6 ± 0.16 °C
  DSF ΔTm (°C): 14.6 °C
CBP bromodomain [3]; Figure 3A, CBP bromodomain
  ΔTm (°C) CBP: 14.6 °C
CBP bromodomain [3]; Figure 3B, CBP
  ΔTm (°C) CBP: 14.6 °C
[4]; Homo sapiens, HD-MB03
  IC50: 108 ± 25 nM
BRD4-BD1 (BRD4-1) [6]
  ∆Tm (°C) BRD4-1: 5.5 ± 0.17 °C
  ΔTm (°C) BRD4-BD1: 5.5 °C
EP300 bromodomain
  ∆Tm (°C) EP300: 14.8 ± 0.45 °C
  ΔTm (°C) EP300: 14.8 °C
